Results published in patent publication US20260347843A1, “NERVOUS SYSTEM DELIVERY ENHANCER” (priority 2022, published 2026).

What was measured:
[1] = Evaluation of central nervous system toxicity (acute tolerability score); type: in vivo, mouse; details: intraventricular
Method: On the ASO described in Table 2, the preparation of the nucleic acid, an in vivo experiment, and the evaluation of the target gene suppression effect were performed by the same methods as in Example 1. In this Example, however, the dose of the nucleic acid agent per mouse was 9.4 nmol (50 μg).
By the below-described methods, evaluation of central nervous system toxicity and evaluation of motor function were performed on mice after intraventricular administration.
In the evaluation of central nervous system toxicity, the behavior was evaluated, using the scoring system shown in FIG. 6, at 30 minutes, 1 hour, and 2 hours after the intraventricular administration. According to the scoring system shown in FIG. 6, the behaviors classified into five categories were evaluated (Categories 1 to 5 in FIG. 6). Each category comprises two behavior evaluation items. Each behavior evaluation item is rated in five stages from 0 to 4 points (Scores 0 to 4 in FIG. 6). A normal behavior is given 0 point, and higher toxicity is given a higher score. In each category, the higher score in the two behavior evaluation items is adopted as the score for the category. The total value of the scores for the five categories is defined as an acute tolerability score (0 to 20 points).

Sod1 mRNA = Sod1 mRNA expression level in the hippocampus after intraventricular administration of siRNA; type: in vivo, mouse; details: coadministered with siRNA (7.0 nmol, 100 μg), 7 days
[2] = system: exon 23/intron 23 of dystrophin pre-mRNA; assay: Exon 23 skipping efficiency in the brain after intraventricular administration; type: in vivo, mouse; details: TGN-073 250 μg, hippocampus, striatum, cortex (any site), 7 days
Method: The mouse used was a 6-week-old male C57BL/6J mouse having a body weight of 20 g. In the following Examples, all the experiments performed using a mouse were based on n=3. PMO (the PMO single administration group) at 2.5 nmol or 2.5 nmol PMO with 250 μg of TGN-073 added thereto (the PMO/TGN-073 coadministration group) was administered in an amount of 10 μL to the left cerebral ventricle of a mouse.
At 1 week after the intraventricular administration, the mouse was dissected, and the hippocampus, striatum, and cortex (occipital lobe) were extirpated. Subsequently, mRNA was extracted from each tissue, using Isogen II. On the total RNA (900 ng) extracted, One-Step RT-PCR was performed using Qiagen One Step RT-PCR Kit (manufactured by Qiagen N.V.). A reaction solution was prepared in accordance with the protocol attached to the Kit. […]
A reaction product of the above-described RT-PCR, in an amount of 1 μL, was analyzed using Bioanalyzer 2100 (manufactured by Agilent Technologies, Inc.), and using an Agilent DNA1000 kit. The number “A” of moles of the nucleotide of the band skipped by exon 23 and the number “B” of moles of the nucleotide of the band not skipped by exon 23 were measured. On the basis of the measurement values of these “A” and “B”, the skipping efficiency was determined in accordance with the following formula: skipping efficiency (%)=A/(A+B)×100. […]

[3] = system: GFP expression in the central nervous system; assay: GFP expression from AAV9 vector in hippocampus-level coronal images after intraventricular administration; type: in vivo; details: coadministered with AAV9-CMV-hrGFP, TGN-073 250 μg/mouse, 3 weeks
Method: In this Example, a GFP expression AAV9 (AAV9-CMV-hrGFP) as an adeno-associated viral (AAV) vector, alone or in combination with TGN-073 (250 μg/mouse), was administered at a dose of 26× 109 vg/mouse to the left lateral ventricle of a 7-week-old ICR mouse (female). Hereinafter, the mice to which only the AAV vector was intraventricularly administered are referred to as the “AAV single administration group”, and the mice to which the AAV vector and TGN-073 were intraventricularly administered together are referred to as the “AAV/TGN-073 coadministration group”. At 3 weeks after the intraventricular administration, the mouse was subjected to perfusion fixation using 4% paraformaldehyde. The mouse was subjected to cryoprotective treatment using a solution of 10% to 30% sucrose dissolved in PBS, and then, a cut-piece having a thickness of 40 μm was produced using a microtome. Using a fluorescence microscope (VHS-7000, Keyence Corporation), the GFP fluorescence (hippocampus-level coronal image) was captured.

Aquaporin-4 = details: as disclosed in WO2017/150704 and Huber V. J. et al., NeuroReport, 2018; cited from earlier work

Compound: O=S(=O)(Nc1ncccc1OCc1ccccc1)c1ccccc1 [TGN-073, N-(3-benzyloxypyridin-2-yl)-benzene-sulfonamide]
- Central nervous system toxicity ([1]; TGN-073 single administration, 30 minutes, 1 hour, and 2 hours): no toxicity
- Acute tolerability score ([1]; TGN-073 single administration, 30 minutes, 1 hour, and 2 hours, scale 0 to 20 points): 0
- Acute tolerability score vs ASO single administration ([1]; coadministered with Mapt-targeting ASO (50 μg), 30 minutes, 1 hour, 2 hours): substantially the same acute tolerability score as the ASO single administration group
- Augmentation of neurotoxicity by TGN-073 coadministration ([1]; coadministered with Mapt-targeting ASO): no recognizable augmentation of neurotoxicity at all
- Target gene (Sod1) suppression effect in the brain (hippocampus) vs siRNA single administration (Sod1 mRNA): marked augmentation
- Exon 23 skipping efficiency vs Chol-HDO (PMO) single administration ([2]; coadministered with Chol-HDO (PMO) (2.5 nmol)): noticeable increase
- Exon 23 skipping efficiency vs PMO single administration ([2]; coadministered with PMO (2.5 nmol)): noticeable increase
- GFP expression amount vs AAV single administration [3]: increase in the expression amount
- Range of GFP expression in the central nervous system vs AAV single administration [3]: significantly wide range
- Promotion of the function of Aquaporin-4 (Aquaporin-4): can promote the function of Aquaporin-4
